# Measured values published in patent publication US20230203099A1, “CYCLOPHILIN INHIBITORS AND USES THEREOF” (priority 2020, published 2023).
# Like-named read-outs stand apart in the source and are kept apart here.
# What was measured:
# [1] = biological target: Human CypD (Homo sapiens, UniProt P30405); test: Cyclophilin peptidyl-prolyl isomerase functional assay (PPIase), cyclophilin D; format: biochemical
# [2] = biological target: recombinant Calcineurin (CaN) (Homo sapiens, UniProt P63098+Q08209); test: Calcineurin phosphatase inhibition assay without cyclophilin A; format: biochemical
# Chain of recombinant Calcineurin (CaN) (P63098 whole entry, other chains not shown): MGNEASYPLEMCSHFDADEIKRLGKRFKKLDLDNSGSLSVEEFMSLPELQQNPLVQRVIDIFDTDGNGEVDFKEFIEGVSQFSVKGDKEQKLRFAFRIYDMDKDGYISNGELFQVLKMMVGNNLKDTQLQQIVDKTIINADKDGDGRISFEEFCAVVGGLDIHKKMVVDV
# [3] = system: permeabilized HepG2; test: Calcium retention capacity (CRC) assay in permeabilized HepG2; format: cell-based; settings: Homo sapiens
# [4] = biological target: Human CypA (Homo sapiens, UniProt P62937); test: Cyclophilin peptidyl-prolyl isomerase functional assay (PPIase), cyclophilin A; format: biochemical; settings: human recombinant enzyme, 10° C.; read-out: Inhibition (Ki, nM) Human CypA
# Chain of Human CypA (P62937 whole entry): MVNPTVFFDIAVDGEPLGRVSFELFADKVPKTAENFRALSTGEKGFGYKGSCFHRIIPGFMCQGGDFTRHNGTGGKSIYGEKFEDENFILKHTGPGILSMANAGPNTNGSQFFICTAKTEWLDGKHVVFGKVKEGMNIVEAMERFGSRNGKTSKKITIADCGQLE
# [5] = biological target: recombinant Calcineurin (CaN) + CypA (Homo sapiens, UniProt P62937+P63098+Q08209); test: Calcineurin phosphatase inhibition assay with cyclophilin A; format: biochemical; settings: RII phosphopeptide substrate
# Chain of recombinant Calcineurin (CaN) + CypA (P62937 whole entry, other chains not shown): as the sequence (P62937 whole entry) above
# Chain of recombinant Calcineurin (CaN) + CypA (P63098 whole entry, other chains not shown): as the sequence (P63098 whole entry, other chains not shown) above
# [6] = human recombinant enzyme, 10° C., read-out: Inhibition (Ki, nM) Human CypD
# [7] = without cyclophilin A, RII phosphopeptide substrate, read-out: Calcineurin Inhibition (IC50, nM) −CypA
# [8] = permeabilized HepG2, Calcium Green 5N, read-out: Calcium Retention Capacity EC50
# Chain of Human CypD (P30405 30-207): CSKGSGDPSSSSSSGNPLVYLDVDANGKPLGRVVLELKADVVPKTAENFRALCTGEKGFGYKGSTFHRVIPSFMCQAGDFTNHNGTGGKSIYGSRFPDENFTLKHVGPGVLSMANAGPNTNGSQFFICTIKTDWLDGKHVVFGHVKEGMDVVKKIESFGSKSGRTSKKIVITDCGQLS
"Ki [1, 6]","IC50 [2, 7]","EC50 [3, 8]",Ki [4],IC50 [5],SMILES,Ki [1],IC50 [2],"EC50 ([3]; HepG2, read-out: Calcium Retention Capacity EC50 (nM))"
,,,,,CC[C@@H]1NC(=O)[C@H]([C@H](O)[C@H](C)C/C=C/c2ccc(C)cc2)N(C)C(=O)[C@H](C(C)C)N(C)C(=O)[C@H](CC(C)C)N(C)C(=O)[C@H](CC(C)C)N(C)C(=O)[C@@H](C)NC(=O)[C@H](C)NC(=O)[C@H](CC(C)C)N(C)C(=O)[C@H](C(C)C)NC(=O)[C@H](CC(C)C)N(C)C(=O)C(OCCN(C)C)N(C)C1=O (some centres unmarked) [Compound 2],11 nM,3950 nM,512 nM
9.4 nM,> 10000 nM,1370 nM,,,CC[C@@H]1NC(=O)[C@H]([C@H](O)[C@H](C)C/C=C/c2ccc(C(F)(F)F)cc2)N(C)C(=O)[C@H](C(C)C)N(C)C(=O)[C@H](CC(C)C)N(C)C(=O)[C@H](CC(C)C)N(C)C(=O)[C@@H](C)NC(=O)[C@H](C)NC(=O)[C@H](CC(C)C)N(C)C(=O)[C@H](C(C)C)NC(=O)[C@H](CC(C)C)N(C)C(=O)C(OCCN(C)C)N(C)C1=O (some centres unmarked) [Compound 3],,,
11 nM,1160 nM,867 nM,,,CC[C@@H]1NC(=O)[C@H]([C@H](O)[C@H](C)C/C=C/c2cccs2)N(C)C(=O)[C@H](C(C)C)N(C)C(=O)[C@H](CC(C)C)N(C)C(=O)[C@H](CC(C)C)N(C)C(=O)[C@@H](C)NC(=O)[C@H](C)NC(=O)[C@H](CC(C)C)N(C)C(=O)[C@H](C(C)C)NC(=O)[C@H](CC(C)C)N(C)C(=O)C(OCCN(C)C)N(C)C1=O (some centres unmarked) [Compound 4],,,
8.4 nM,2660 nM,623 nM,5.5 nM,2430 nM,CC[C@@H]1NC(=O)[C@H]([C@H](O)[C@H](C)C/C=C/c2ccc(OC)cc2)N(C)C(=O)[C@H](C(C)C)N(C)C(=O)[C@H](CC(C)C)N(C)C(=O)[C@H](CC(C)C)N(C)C(=O)[C@@H](C)NC(=O)[C@H](C)NC(=O)[C@H](CC(C)C)N(C)C(=O)[C@H](C(C)C)NC(=O)[C@H](CC(C)C)N(C)C(=O)C(OCCN(C)C)N(C)C1=O (some centres unmarked) [Compound 5],,,
6.5 nM,> 10000 nM,964 nM,,,CC[C@@H]1NC(=O)[C@H]([C@H](O)[C@H](C)C/C=C/c2ccc3ccccc3c2)N(C)C(=O)[C@H](C(C)C)N(C)C(=O)[C@H](CC(C)C)N(C)C(=O)[C@H](CC(C)C)N(C)C(=O)[C@@H](C)NC(=O)[C@H](C)NC(=O)[C@H](CC(C)C)N(C)C(=O)[C@H](C(C)C)NC(=O)[C@H](CC(C)C)N(C)C(=O)C(OCCN(C)C)N(C)C1=O (some centres unmarked) [Compound 6],,,
